From US9278981B2, “Compounds and compositions for inhibiting the activity of ABL1, ABL2 and BCR-ABL1” (Novartis AG, priority 2012, dated 2016)
pIC50: −log10 of the molar value.

Legend:
[1] = test system: Ba/F3-BCR-ABL1-WT cells; test: cells; conditions: Mus musculus, 48 h, read-out: Ba/F3-BCR-ABL1-WT IC50 [μM]
Description: To generate Ba/F3 cells that depend on BCR-ABL1 expression for growth and survival, Ba/F3 cells were engineered to express BCR-ABL1 using retroviral transduction with a MSCV based retroviral vector containing a p210 BCR-ABL1 expression cassette. […] These cells are referred to as Ba/F3-BCR-ABL-WT.
Ba/F3-BCR-ABL1-WT cells and Ba/F3-BCR-ABL1-T315I cells were maintained in RPMI1640 media with L-glutamine, HEPES (Lonza) and 10% FBS (Gibco).
For each cell line, the cell density was adjusted to 50 000 cells/mL and 50 μL (2500 cells) added per well of a 384-well assay plate.
Test compounds were resuspended in DMSO at a concentration of 10 mM. A serial three-fold dilution of each compound with DMSO was performed in 384-well plates using the Janus Liquid Dispenser (PerkinElmer). Compound was delivered to the assay plates containing 2500 cells in a 50 μL volume via Acoustic delivery from an ATS-100 (EDC).
Cells were incubated at 37° C. in a humidified environment with 5% carbon dioxide for 48 hours. Britelite plus solution (Perkin Elmer) was prepared according to the manufacturer's instructions and 25 μL added to each well of the assay plate. […] The degree of luminescence correlates with the number of cells in each well. The effect of each inhibitor concentration can therefore be calculated and IC50 values generated.

[2] = molecular target: T1, ABL1 (64-515) (Homo sapiens (Human), UniProt P00519); test: Radio ABL1 (64-515) assay (radiometric filter-binding); format: biochemical
[3] = molecular target: T1, ABL1 (64-515); test: Caliper ABL1 (64-515) assay (microfluidic mobility shift); format: biochemical

T1 sequence (P00519 64-515): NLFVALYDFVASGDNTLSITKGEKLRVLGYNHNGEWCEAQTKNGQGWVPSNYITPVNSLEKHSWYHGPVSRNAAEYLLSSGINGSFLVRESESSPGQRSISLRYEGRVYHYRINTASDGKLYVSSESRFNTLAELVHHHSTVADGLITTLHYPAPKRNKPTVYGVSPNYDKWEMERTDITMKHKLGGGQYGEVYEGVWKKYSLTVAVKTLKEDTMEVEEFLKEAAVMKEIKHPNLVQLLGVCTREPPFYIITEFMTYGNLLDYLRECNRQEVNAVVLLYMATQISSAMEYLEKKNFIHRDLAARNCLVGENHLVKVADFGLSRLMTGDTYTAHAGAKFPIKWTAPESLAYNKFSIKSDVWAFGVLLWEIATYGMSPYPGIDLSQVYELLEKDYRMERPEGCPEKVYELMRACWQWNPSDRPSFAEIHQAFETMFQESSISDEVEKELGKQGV

**Q.** With O=C(Nc1ccc(OC(F)(F)Cl)cc1)c1cnc(N2CC[C@@H](O)C2)c(-c2cncnc2)c1 [Example 170, (R)—N-(4-(Chlorodifluoromethoxy)phenyl)-6-(3-hydroxypyrrolidin-1-yl)-5-(pyrimidin-5-yl)nicotinamide] as the molecule, how does the IC50 [1] read?
**A.** The IC50 was 0.0005 µM.

**Q.** How did the pIC50 [2] turn out when CC(F)(F)Oc1ccc(NC(=O)c2cnc(N3CC[C@@H](O)C3)c(-c3cncnc3)c2)cc1 [Example 215, (R)—N-(4-(1,1-Difluoroethoxy)phenyl)-6-(3-hydroxypyrrolidin-1-yl)-5-(pyrimidin-5-yl)nicotinamide] was run?
**A.** Its pIC50 is 8.92.

**Q.** And the pIC50 [3]?
**A.** The pIC50 was 8.10.

**Q.** What about the IC50 [1] of the same molecule?
**A.** The IC50 was 0.0246 µM.

**Q.** Which results are given for O=C(Nc1ccc(C(F)(F)C(F)(F)F)cc1)c1cnc(N2CC[C@@H](O)C2)c(-c2cncnc2)c1 [Example 208, (R)-6-(3-Hydroxypyrrolidin-1-yl)-N-(4-(perfluoroethyl)phenyl)-5-(pyrimidin-5-yl)nicotinamide]?
**A.** pIC50 [2]: > 8.52; pIC50 [3]: 9.22; IC50 [1]: 0.0039 µM

**Q.** What does the source list for O=C(Nc1ccc(OC(F)(F)Cl)cc1)c1cnc(N2CC[C@@H](CO)[C@@H](O)C2)c(-c2cncnc2)c1 [Example 257]?
**A.** pIC50 [2]: 8.52; pIC50 [3]: 9.22; IC50 [1]: 0.0011 µM

**Q.** Which results are given for Cc1ncncc1-c1cc(C(=O)Nc2ccc(OC(F)(F)Cl)cc2)ccc1N1C[C@H](O)[C@@H](O)C1 [Example 297, N-(4-(Chlorodifluoromethoxy)phenyl)-4-((3S,4S)-3,4-dihydroxypyrrolidin-1-yl)-3-(4-methylpyrimidin-5-yl)benzamide]?
**A.** pIC50 [3]: 8.85; IC50 [1]: 0.0013 µM

**Q.** O=C(Nc1ccc(OC(F)(F)F)cc1)c1cnc(N2CC[C@H](CO)C2)c(-c2cnc(Cl)c(F)c2)c1 [Example 89, (S)-6′-Chloro-5′-fluoro-2-(3-(hydroxymethyl)pyrrolidin-1-yl)-N-(4-(trifluoromethoxy)phenyl)-[3,3′-bipyridine]-5-carboxamide] was tested. Which pIC50 [2] did it give?
**A.** The pIC50 was greater than 8.52.

**Q.** And the pIC50 [3]?
**A.** The pIC50 was 9.52.

**Q.** What does the source list for Nc1ncc(-c2cc(C(=O)Nc3ccc(OC(F)(F)Cl)cc3)cnc2N2CC[C@@H](O)C2)cc1F [Example 271]?
**A.** pIC50 [2]: 9.30; pIC50 [3]: 9.15

**Q.** O=C(Nc1ccc(SC(F)(F)Cl)cc1)c1cnc(N2CC[C@@H](O)C2)c(-c2cncnc2)c1 [Example 217, (R)—N-(4-((Chlorodifluoromethyl)thio)phenyl)-6-(3-hydroxypyrrolidin-1-yl)-5-(pyrimidin-5-yl)nicotinamide] was tested. Which pIC50 [2] did it give?
**A.** The pIC50 was 8.70.

**Q.** What about the pIC50 [3] of the same molecule?
**A.** Its pIC50 is 9.40.

**Q.** What does the source list for O=C(Nc1ccc(OC(F)(F)F)cc1)c1cnc(N2CCOCC2)c(-c2ccc(CO)nc2)c1 [Example 149, 6′-(Hydroxymethyl)-2-morpholino-N-(4-(trifluoromethoxy)phenyl)-[3,3′-bipyridine]-5-carboxamide]?
**A.** pIC50 [2]: 8.52; pIC50 [3]: 8.59

**Q.** Cc1ccc(-c2cc(C(=O)Nc3ccc(OC(F)(F)F)cc3)cnc2N2CC(O)C2)cn1 [Example 127, 2-(3-Hydroxyazetidin-1-yl)-6′-methyl-N-(4-(trifluoromethoxy)phenyl)-[3,3′-bipyridine]-5-carboxamide] was tested. Which pIC50 [2] did it give?
**A.** Its pIC50 is 8.40.

**Q.** And the pIC50 [3]?
**A.** Its pIC50 is 8.96.

**Q.** N#Cc1cncc(-c2cc(C(=O)Nc3ccc(SC(F)(F)F)cc3)cnc2N2CC[C@H](CO)C2)c1 [Example 191, (S)-5′-Cyano-2-(3-(hydroxymethyl)pyrrolidin-1-yl)-N-(4-((trifluoromethyl)thio)phenyl)-[3,3′-bipyridine]-5-carboxamide] was tested. Which pIC50 [2] did it give?
**A.** The pIC50 was 8.10.

**Q.** And the pIC50 [3]?
**A.** The pIC50 was 9.05.

**Q.** How did the pIC50 [2] turn out when N#Cc1cncc(-c2cc(C(=O)Nc3ccc(OC(F)(F)F)c(F)c3)cnc2N2CC[C@@H](O)C2)c1 [Example 200, (R)-5′-Cyano-N-(3-fluoro-4-(trifluoromethoxy)phenyl)-2-(3-hydroxypyrrolidin-1-yl)-[3,3′-bipyridine]-5-carboxamide] was run?
**A.** Its pIC50 is 8.40.

**Q.** What about the pIC50 [3] of the same molecule?
**A.** Its pIC50 is 8.92.

**Q.** O=C(Nc1ccc(OC(F)(F)F)cc1)c1cnc(N2C[C@H](O)[C@@H](O)C2)c(-c2cccnc2)c1 [Example 70, 2-((3S,4S)-3,4-Dihydroxypyrrolidin-1-yl)-N-(4-(trifluoromethoxy)phenyl)-[3,3′-bipyridine]-5-carboxamide] was tested. Which pIC50 [2] did it give?
**A.** The pIC50 was greater than 8.52.

**Q.** What about the pIC50 [3] of the same molecule?
**A.** Its pIC50 is 9.40.

**Q.** CN(C)[C@H]1CN(c2ncc(C(=O)Nc3ccc(OC(F)(F)F)cc3)cc2-c2cncnc2)C[C@@H]1O [Example 225, 6-((3S,4S)-3-(Dimethylamino)-4-hydroxypyrrolidin-1-yl)-5-(pyrimidin-5-yl)-N-(4-(trifluoromethoxy)phenyl)nicotinamide] was tested. Which pIC50 [2] did it give?
**A.** The pIC50 was 8.70.

**Q.** What about the pIC50 [3] of the same molecule?
**A.** Its pIC50 is 8.07.

**Q.** With O=C(Nc1ccc(OC(F)(F)Cl)cc1)c1cnc(N2C[C@@H](O)[C@@H](O)C2)c(-c2cncc(F)c2)c1 [Example 264] as the molecule, how does the pIC50 [2] read?
**A.** Its pIC50 is 9.00.

**Q.** What about the pIC50 [3] of the same molecule?
**A.** Its pIC50 is 9.22.

**Q.** CCN(CCO)c1ncc(C(=O)Nc2ccc(OC(F)(F)F)cc2)cc1-c1cncnc1 [Example 156, 6-(Ethyl(2-hydroxyethyl)amino)-5-(pyrimidin-5-yl)-N-(4-(trifluoromethoxy)phenyl)nicotinamide] was tested. Which pIC50 [2] did it give?
**A.** Its pIC50 is 8.30.

**Q.** And the pIC50 [3]?
**A.** The pIC50 was 8.77.

**Q.** Which results are given for N#Cc1cncc(-c2cc(C(=O)Nc3ccc(OC(F)(F)Cl)cc3)cnc2N2C[C@H](O)[C@@H](O)C2)c1 [Example 269]?
**A.** pIC50 [2]: > 10.00; pIC50 [3]: > 9.89

**Q.** How did the pIC50 [2] turn out when N[C@@H]1[C@H]2CN(c3ncc(C(=O)Nc4ccc(OC(F)(F)F)cc4)cc3-c3cncnc3)C[C@@H]12 [Example 227] was run?
**A.** Its pIC50 is 9.05.

**Q.** What about the pIC50 [3] of the same molecule?
**A.** Its pIC50 is 8.80.

**Q.** With CCN(CCO)c1ncc(C(=O)Nc2ccc(OC(F)(F)F)cc2)cc1-c1cncc(C#N)c1 [Example 158, 5′-Cyano-2-(ethyl(2-hydroxyethyl)amino)-N-(4-(trifluoromethoxy)phenyl)-[3,3′-bipyridine]-5-carboxamide] as the molecule, how does the pIC50 [2] read?
**A.** The pIC50 was 7.43.

**Q.** And the pIC50 [3]?
**A.** Its pIC50 is 8.55.

**Q.** What does the source list for Cc1ncc(-c2cc(C(=O)Nc3ccc(OC(F)(F)Cl)cc3)ccc2N2C[C@H](O)[C@@H](O)C2)cn1 [Example 246, N-(4-(Chlorodifluoromethoxy)phenyl)-4-((3S,4S)-3,4-dihydroxypyrrolidin-1-yl)-3-(2-methylpyrimidin-5-yl)benzamide]?
**A.** pIC50 [2]: 9.00; pIC50 [3]: 8.66

**Q.** How did the pIC50 [2] turn out when O=C(Nc1ccc(OC(F)(F)F)cc1)c1cnc(N2CC[C@@H](O)C2)c(-c2cnc(Cl)c(F)c2)c1 [Example 53, (R)-6′-Chloro-5′-fluoro-2-(3-hydroxypyrrolidin-1-yl)-N-(4-(trifluoromethoxy)phenyl)-[3,3′-bipyridine]-5-carboxamide] was run?
**A.** Its pIC50 is greater than 8.52.

**Q.** And the pIC50 [3]?
**A.** The pIC50 was 9.40.

**Q.** CC(F)(F)Oc1ccc(NC(=O)c2cnc(N3CC[C@@H](O)C3)c(-c3cncc(F)c3)c2)cc1 [Example 275] was tested. Which pIC50 [2] did it give?
**A.** The pIC50 was 8.30.

**Q.** What about the pIC50 [3] of the same molecule?
**A.** Its pIC50 is 8.55.

**Q.** CCN(CCO)c1ncc(C(=O)Nc2ccc(OC(F)(F)F)cc2)cc1-c1cncc(F)c1 [Example 157, 2-(Ethyl(2-hydroxyethyl)amino)-5′-fluoro-N-(4-(trifluoromethoxy)phenyl)-[3,3′-bipyridine]-5-carboxamide] was tested. Which pIC50 [2] did it give?
**A.** Its pIC50 is greater than 8.52.

**Q.** And the pIC50 [3]?
**A.** Its pIC50 is 8.70.

**Q.** What does the source list for Cc1ncc(-c2cc(C(=O)Nc3ccc(OC(F)(F)F)cc3)cnc2N2CC(C)(O)C2)cc1F [Example 133, 5′-Fluoro-2-(3-hydroxy-3-methylazetidin-1-yl)-6′-methyl-N-(4-(trifluoromethoxy)phenyl)-[3,3′-bipyridine]-5-carboxamide]?
**A.** pIC50 [2]: > 8.52; pIC50 [3]: 8.85

**Q.** Which results are given for O=C(Nc1ccc(SC(F)F)cc1)c1cnc(N2CC[C@@H](O)C2)c(-c2cncnc2)c1 [Example 211, (R)—N-(4-((Difluoromethyl)thio)phenyl)-6-(3-hydroxypyrrolidin-1-yl)-5-(pyrimidin-5-yl)nicotinamide]?
**A.** pIC50 [2]: 7.96; pIC50 [3]: 8.48

**Q.** Which results are given for O=C(Nc1ccc(OC(F)(F)Cl)cc1)c1cnc(N2CC[C@@H](O)C2)c(-c2cnccc2F)c1 [Example 280, (R)—N-(4-(Chlorodifluoromethoxy)phenyl)-4′-fluoro-2-(3-hydroxypyrrolidin-1-yl)-[3,3′-bipyridine]-5-carboxamide]?
**A.** pIC50 [2]: 8.70; pIC50 [3]: 9.52

**Q.** How did the pIC50 [2] turn out when O=C(Nc1ccc(OC(F)(F)F)cc1)c1cnc(N2CC(CO)C2)c(-c2cccnc2)c1 [Example 137, 2-(3-(Hydroxymethyl)azetidin-1-yl)-N-(4-(trifluoromethoxy)phenyl)-[3,3′-bipyridine]-5-carboxamide] was run?
**A.** Its pIC50 is 8.22.

**Q.** What about the pIC50 [3] of the same molecule?
**A.** The pIC50 was 9.22.

**Q.** Cc1ccc(-c2cc(C(=O)Nc3ccc(OC(F)(F)F)cc3)cnc2N2CC[C@H](O)C2)cn1 [Example 34, (S)-2-(3-Hydroxypyrrolidin-1-yl)-6′-methyl-N-(4-(trifluoromethoxy)phenyl)-[3,3′-bipyridine]-5-carboxamide] was tested. Which pIC50 [2] did it give?
**A.** The pIC50 was greater than 8.52.

**Q.** What about the pIC50 [3] of the same molecule?
**A.** The pIC50 was 9.10.

**Q.** How did the pIC50 [2] turn out when O=C(Nc1ccc(OC(F)(F)Cl)cc1)c1cnc(N2CC[C@H](CO)C2)c(-c2cncnc2)c1 [Example 174, (S)—N-(4-(Chlorodifluoromethoxy)phenyl)-6-(3-(hydroxymethyl)pyrrolidin-1-yl)-5-(pyrimidin-5-yl)nicotinamide] was run?
**A.** The pIC50 was 8.52.

**Q.** What about the pIC50 [3] of the same molecule?
**A.** Its pIC50 is 9.05.

**Q.** O=C(Nc1ccc(OC(F)(F)Cl)cc1)c1cnc(N(CCO)CCO)c(-c2cncnc2)c1 [Example 261] was tested. Which pIC50 [2] did it give?
**A.** Its pIC50 is 8.74.

**Q.** And the pIC50 [3]?
**A.** The pIC50 was 8.41.

**Q.** With Cc1ccc(-c2cc(C(=O)Nc3ccc(OC(F)(F)F)cc3)cnc2N2CC[C@@H](CO)C2)cn1 [Example 77, (R)-2-(3-(hydroxymethyl)pyrrolidin-1-yl)-6′-methyl-N-(4-(trifluoromethoxy)phenyl)-[3,3′-bipyridine]-5-carboxamide] as the molecule, how does the pIC50 [2] read?
**A.** Its pIC50 is 8.52.

**Q.** What about the pIC50 [3] of the same molecule?
**A.** The pIC50 was 9.05.

**Q.** With O=C(Nc1ccc(SC(F)(F)F)c(F)c1)c1cnc(N2CC[C@@H](O)C2)c(-c2cncc(F)c2)c1 [Example 206, (R)-5′-Fluoro-N-(3-fluoro-4-((trifluoromethyl)thio)phenyl)-2-(3-hydroxypyrrolidin-1-yl)-[3,3′-bipyridine]-5-carboxamide] as the molecule, how does the pIC50 [2] read?
**A.** Its pIC50 is 8.22.

**Q.** And the pIC50 [3]?
**A.** The pIC50 was 9.30.

**Q.** With O=C(Nc1ccc(OC(F)(F)F)cc1)c1cnc(N2CC(CO)C2)c(-c2cncnc2)c1 [Example 135, 6-(3-(Hydroxymethyl)azetidin-1-yl)-5-(pyrimidin-5-yl)-N-(4-(trifluoromethoxy)phenyl)nicotinamide] as the molecule, how does the pIC50 [2] read?
**A.** Its pIC50 is greater than 8.52.

**Q.** What about the pIC50 [3] of the same molecule?
**A.** Its pIC50 is 8.70.

**Q.** How did the pIC50 [2] turn out when CCN(CCO)c1ncc(C(=O)Nc2ccc(OC(F)(F)Cl)cc2)cc1-c1cncnc1 [Example 182, N-(4-(Chlorodifluoromethoxy)phenyl)-6-(ethyl(2-hydroxyethyl)amino)-5-(pyrimidin-5-yl)nicotinamide] was run?
**A.** Its pIC50 is 8.40.

**Q.** What about the pIC50 [3] of the same molecule?
**A.** Its pIC50 is 9.22.
